The target of this test is STAT3 (Homo sapiens, UniProt P40763). The experiment in a line: Fluorescence polarization (FP) competition assay with 5-FLU-GpYLPQTV-NH2. The class given is binding. Also on record: purchased Abcam ab43618. The conditions noted are these: FP assay. How it is done:
The FP assay was conducted as described in [Zhao et al. (2010]). The fluorochrome-labeled phosphopeptide, 5-FLU-G (pY)LPQTV-NH2, was synthesized by ProImmune (London, United Kingdom) with over 95% purity as a probe. The recombinant human STAT3 protein was purchased from Abcam (ab43618). To obtain an inhibitory effect, drugs (0–1,000 μM) and 150 nM human STAT3 were incubated at 37°C in an assay buffer (50 mm NaCl, 10 mm HEPES, 1 mm EDTA, and 0.01% Triton X-100) for 1 h prior to co-incubation with 10 nM of the fluorochrome-labeled peptide at RT for 30 min. The plate was sealed under nitrogen and left at RT for 72 h. The fluorescence polarization was then analyzed by the BioTek Synergy™ Neo2 Multi-Mode Microplate Reader (BioTek Instruments, Winooski, VT, United States). Binding curves were fit to a log-logistic function using the R package drc. Ki was determined from the resulting IC50 using the Cheng–Prusoff equation and the Kd for fluorochrome-labeled peptide binding to STAT3, Ki = IC50/(([L])/Kd) +1. […]
FIGURE 4 Fluorescence polarization (FP) assays identified 323s as direct STAT3 SH2 domain binders. (A) Fluorescence polarization (FP) analysis of the binding of 10 nM GpYLTQTV-NH2and 150 nM human STAT3 protein with increasing concentration of drugs. […]

The source of these data is paper PMC9196127, “Novel STAT3 Inhibitors Targeting STAT3 Dimerization by Binding to the STAT3 SH2 Domain” (Frontiers in Pharmacology, 2022).

SMILES strings stand for the structures.

STAT3, sequence (P40763 whole entry): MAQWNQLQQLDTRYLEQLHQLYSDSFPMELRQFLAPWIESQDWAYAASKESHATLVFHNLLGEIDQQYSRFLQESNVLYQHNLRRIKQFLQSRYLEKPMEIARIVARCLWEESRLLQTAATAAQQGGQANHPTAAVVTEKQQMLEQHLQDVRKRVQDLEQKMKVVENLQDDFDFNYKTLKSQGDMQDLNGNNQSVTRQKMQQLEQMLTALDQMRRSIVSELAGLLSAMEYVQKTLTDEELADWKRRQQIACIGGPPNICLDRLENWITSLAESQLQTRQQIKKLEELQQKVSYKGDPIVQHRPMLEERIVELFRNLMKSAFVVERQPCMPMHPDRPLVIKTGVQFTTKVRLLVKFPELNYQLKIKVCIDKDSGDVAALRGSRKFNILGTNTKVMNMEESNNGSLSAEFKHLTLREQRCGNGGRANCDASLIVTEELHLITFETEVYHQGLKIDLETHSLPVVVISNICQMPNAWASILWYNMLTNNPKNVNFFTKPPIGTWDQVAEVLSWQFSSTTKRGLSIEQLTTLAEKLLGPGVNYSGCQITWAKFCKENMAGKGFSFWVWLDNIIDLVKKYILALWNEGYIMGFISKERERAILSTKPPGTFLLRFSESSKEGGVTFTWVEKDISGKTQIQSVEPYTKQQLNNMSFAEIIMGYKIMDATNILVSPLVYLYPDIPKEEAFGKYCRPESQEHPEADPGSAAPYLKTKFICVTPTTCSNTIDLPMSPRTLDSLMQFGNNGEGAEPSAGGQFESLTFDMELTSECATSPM

Take `C[C@@H]1CCC(c2cc3c4c(cncc4c2)[C@H](C)C3)=C1C=O` [323–1, (15R,2R)-delavatine A]: the “potency to disrupt STAT3/GpYLPQTV relative to S3I-201” value is on record as “around five-fold more potently than S3I-201”. As for `C[C@@H]1CCC(c2cc3c4c(cncc4c2)[C@@H](C)C3)=C1C=O` [323–2, (15S,2R)-delavatine A], the entry is “around five-fold more potently than S3I-201”.
